This is an account of results in ChEMBL document CHEMBL3272317, “Application of SCAP to drug design. 1. Prediction of octanol-water partition coefficients using solvent-dependent conformational analyses” (J Med Chem, 1976).

The nature of the series: Octanol-water partition coefficient, log P of the compound.
On to `CC(C)(C)CO`, for which the logP amounted to 1.36. In turn, `Nc1ccccc1` [ANILINE] returned a logP of 0.9. As to `CCC#N` [PROPIONITRILE], the logP turned out to be 0.16. `OC1CCCCC1` [CYCLOHEXANOL] returned a logP of 1.23. For the molecule `CCC(C)=O` [BUTANONE], the logP was determined as 0.29. Next, `CCCc1ccccc1`: 3.68; `CCCCCl` [BUTYL CHLORIDE]: 2.39.

Broadly, the logP is a log measure of how a compound divides between an organic and an aqueous phase. The low end stands for a more hydrophilic compound, the high end for a more lipophilic compound.
